# Like-named read-outs stand apart in the source and are kept apart here.
# What was measured:
# HIV-1NL4-3 = test: In vitro antiviral assay (p24 ELISA) in PHA-stimulated human PBMCs; settings: for IC50: read-out: NL4-3 Antiviral (PBMC) IC50; for IC90: read-out: NL4-3 Antiviral (PBMC) IC90
# [1] = tested on: PHA-stimulated human PBMCs; test: Cytotoxicity assay (MTT) in uninfected PBMCs; type: cell-based
# [2] = Human immunodeficiency virus 1, NL43, PBMC, in Homo sapiens, 168 h
# [3] = PHA-stimulated human PBMCs, 7 days, p24 ELISA
IC50 (HIV-1NL4-3; [2]),IC90 (HIV-1NL4-3; [2]),SMILES,"cytotoxicity better than NBD-14189 ([1]; PBMC, compared with NBD-14189)",SI CC50/IC50 (HIV-1NL4-3; PBMC CC50 / NL4-3 IC50),IC50 (HIV-1NL4-3; [3]),IC90 (HIV-1NL4-3; [3]),"CC50 ([1]; uninfected PBMCs, MTT, day 7, read-out: PBMC Toxicity CC50)","CC90 ([1]; uninfected PBMCs, MTT, day 7, read-out: PBMC Toxicity CC90)"
0.28 µM,> 10 µM,COc1cnc(-n2cnc(C)n2)c2[nH]cc(C(=O)C(=O)N3CCN(C(=O)c4ccccc4)CC3)c12 [BMS-626529],about 3 fold,,,,,
,,C#C[C@]1(CO)O[C@@H](n2cnc3c(N)nc(F)nc32)C[C@@H]1O [EFdA],,"13,000",0.0017 µM,> 0.066 µM,23 µM,> 100 µM

# Reference: PMC9611370 (Viruses, 2022)
